Measurements published in US8754115B2, “Fungicidal pyrazoles” (E I du Pont de Nemours and Company, priority 2010, dated 2014).
Marks after values point to notes of the source that are not given here.

Assays:
Assay type in all cases: in vivo
Botrytis cinerea = test: Test A: preventive spray on tomato seedlings, visual disease rating (tomato Botrytis)
Summary of the method: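 Preventive test: Botrytis cinerea spores applied one day after run-off spraying at 200 ppm (≈800 g/ha), or 40 ppm where asterisked. Incubation 48 h at 20 °C in saturated air, then 3 days at 24 °C; disease scored visually from 0 (no control) to 100 (complete control) versus untreated.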

Alternaria solani = test: Test B: preventive spray on tomato seedlings, visual disease rating (tomato early blight)
Summary of the method: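 Compounds were suspended at 200 ppm (asterisked values at 40 ppm) in acetone/water with surfactant and sprayed to run-off on tomato seedlings, 200 ppm being equivalent to 800 g/ha. A. solani spores were inoculated the next day, with 48 h at 27 °C in saturated air, then 5 days at 20 °C. Disease control was rated visually, 0–100% relative to controls.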

Septoria nodorum = test: Test C: preventive spray on wheat seedlings, visual disease rating (Septoria glume blotch)
Summary of the method: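 Wheat seedlings were sprayed to run-off with 200 ppm suspension (40 ppm where marked; 200 ppm ≈ 800 g/ha) in acetone/water with 250 ppm Trem 014, then inoculated next day with Septoria nodorum spores. Incubation was 48 h saturated at 24 °C, then 6 days at 20 °C; visual rating 0–100% disease control versus controls.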

Septoria tritici = test: Test D: preventive spray on wheat seedlings, visual disease rating (wheat leaf blotch)
Summary of the method: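 Protection was scored visually on a 0–100% disease-control scale versus controls, 19 days after plants were moved to 20 °C following 48 h of 24 °C saturated humidity. Spore inoculation with S. tritici took place one day after a preventive run-off spray, usually at 200 ppm (800 g/ha) and at 40 ppm where asterisked.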

[1] = tested on: Puccinia recondite f. sp. tritici; test: Test E1: curative spray on wheat seedlings after inoculation, visual disease rating (wheat leaf rust)
Summary of the method: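 Seedlings inoculated with rust spores, held 24 h in saturated atmosphere at 20 °C, then 2 days at 20 °C before curative spray to run-off with test suspension (200 ppm ≈ 800 g/ha, or 40 ppm where marked) in acetone/water with surfactant. Visual disease control rating (0–100) after 6 further days at 20 °C.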

[2] = tested on: Puccinia recondite f. sp. tritici; test: Test E2: preventive spray on wheat seedlings, visual disease rating (wheat leaf rust)
Summary of the method: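 Wheat seedlings were inoculated with leaf rust spores one day after a run-off spray of compound at 200 ppm (asterisk: 40 ppm) in 50/50 acetone/water with 250 ppm Trem 014. Incubation: 24 h saturated humidity, 20 °C; then 7 days growth chamber, 20 °C. Disease control scored visually, 0–100% relative to controls.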

[3] = tested on: Blumeria graminis f. sp. tritici; test: Test F: preventive spray on wheat seedlings, visual disease rating (wheat powdery mildew)
Summary of the method: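 Visual ratings (0–100% control relative to controls) taken 8 days after spore-dust inoculation at 20° C. Inoculation followed one day after a protective run-off spray of 200 ppm suspension, equal to 800 g/ha, or 40 ppm where flagged, made in acetone/water with 250 ppm surfactant.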

[4] = no asterisk: standard test suspension, not 40 ppm, 100 = 100% disease control, 0 = none
[5] = no asterisk: standard test suspension, not 40 ppm
[6] = asterisk: 40 ppm test suspension

Row | Molecule | Test A rating (% disease control) (Botrytis cinerea; [4]) | Test B rating (% disease control) (Alternaria solani; [5]) | Test C rating (% disease control) (Septoria nodorum; [5]) | Test D rating (% disease control) (Septoria tritici; [5]) | Test E1 rating (% disease control) [1, 5] | Test E2 rating (% disease control) [2, 5] | Test F rating (% disease control) [3, 5] | also measured
1 | Cc1nn(C)c(-c2c(F)cccc2F)c1C(F)c1ccc(F)cc1Cl (stereo not drawn) [Compound 54] | 100% | 100% | 99% | 100% | 100% | 99% | 99% | –
2 | Cc1nn(C)c(-c2ccc(F)cc2Cl)c1C(O)c1ccc(F)cc1F (stereo not drawn) [compound 17] | 100% | 94% | 60% | 100% | 83% | 100% | 100% | –
3 | Cc1nn(C)c(-c2ccc(C#N)cc2Cl)c1Oc1ccc(F)cc1Cl [compound 36] | 96% | 0% | 0% | 100% | 18% | 100% | 100% | –
4 | Cc1nn(C)c(-c2c(F)cc(F)cc2F)c1C(O)c1ccc(F)cc1F (stereo not drawn) [compound 66] | 100% | 100% | 95% | 100% | 55% | 100% | 99% | –
5 | Cc1nn(C)c(-c2c(F)cc(F)cc2F)c1C(=O)c1ccc(F)cc1Cl [compound 59] | 66% | 0% | 0% | 58% | 0% | 80% | 100% | –
6 | 4-[(4-chlorophenyl)thio]-5-(2,6-difluorophenyl)-1,3-dimethyl-1H-pyrazole [Compound 56] | 100% | 59% | 0% | 100% | 0% | 99% | 100% | –
7 | 4-[[5-(2-chloro-4-fluorophenyl)-1,3-dimethyl-1H-pyrazol-4-yl]amino]-3,5-difluorobenzonitrile [Compound 40] | 100% | 0% | 0% | 0% | 38% | 68% | 91% | –
8 | COC(c1ccc(F)cc1Cl)c1c(C)nn(C)c1-c1c(F)cccc1Cl (stereo not drawn) [Compound 67] | 57% | 9% | 0% | 100% | 28% | 90% | 100% | –
9 | 4-(2-chloro-4-fluorophenoxy)-5-(2,4-difluorophenyl)-1,3-dimethyl-1H-pyrazole [Compound 5] | 100% | 100% | 100% | 100% | 99% | 100% | 100% | –
10 | Cc1nn(C)c(-c2ccc(F)cc2Cl)c1Oc1ccc(C#N)cc1Cl [compound 43] | 98% | 0% | 0% | 100% | 0% | 98% | 97% | –
11 | (2,4-difluorophenyl)-[5-(2,4-difluorophenyl)-1,3-dimethyl-1H-pyrazol-4-yl]methanone [Compound 32] | 0% | 96% | 0% | 100% | 0% | 9% | 0% | –
12 | Cc1nn(C)c(-c2ccc(F)cc2Cl)c1Nc1ccc(F)cc1Cl [compound 42] | 99% | 99% | 0% | 100% | 32% | 99% | 100% | –
13 | Cn1nc(C#N)c(C(O)c2ccc(F)cc2Cl)c1-c1c(F)cccc1F (stereo not drawn) [Compound 53, 4-[(2-chloro-4-fluorophenyl)hydroxymethyl]-5-(2,6-difluorophenyl)-1-methyl-1H-pyrazole-3-carbonitrile] | – | – | – | – | – | – | – | pest or weed control at 40 ppm (Botrytis cinerea; Botrytis cinerea, 120 h, asterisk: 40 ppm test suspension): 93%; pest or weed control at 40 ppm (Alternaria solani; Alternaria solani, 168 h, asterisk: 40 ppm test suspension): 99%; pest or weed control at 40 ppm (Septoria nodorum; Parastagonospora nodorum, 192 h, asterisk: 40 ppm test suspension): 0%; pest or weed control at 40 ppm (Septoria tritici; Zymoseptoria tritici, 504 h, asterisk: 40 ppm test suspension): 100%; pest or weed control at 40 ppm ([1]; 144 h, asterisk: 40 ppm test suspension): 0%; pest or weed control at 40 ppm ([2]; 192 h, asterisk: 40 ppm test suspension): 93%; pest or weed control at 40 ppm ([3]; Blumeria graminis, 192 h, asterisk: 40 ppm test suspension): 43%
14 | Cc1nn(C)c(-c2c(F)cccc2F)c1C(Cl)c1ccc(F)cc1Cl (stereo not drawn) [Compound 84] | – | – | – | – | – | – | – | Test A rating (% disease control) (Botrytis cinerea; [6]): 96* %; Test B rating (% disease control) (Alternaria solani; [6]): 100* %; Test C rating (% disease control) (Septoria nodorum; [6]): 99* %; Test D rating (% disease control) (Septoria tritici; [6]): 100* %; Test E1 rating (% disease control) [1, 6]: 41* %; Test E2 rating (% disease control) [2, 6]: 100* %; Test F rating (% disease control) [3, 6]: 100* %
15 | Cc1nn(C)c(-c2ccc(F)cc2Cl)c1Nc1ccc(Cl)cc1F [Compound 45] | 100% | 0% | 0% | 100% | 77% | 97% | 99% | Test A rating (% disease control) (Botrytis cinerea; [6]): 98* %; Test B rating (% disease control) (Alternaria solani; [6]): 33* %; Test C rating (% disease control) (Septoria nodorum; [6]): 0* %; Test D rating (% disease control) (Septoria tritici; [6]): 100* %; Test E1 rating (% disease control) [1, 6]: 0* %; Test E2 rating (% disease control) [2, 6]: 95* %; Test F rating (% disease control) [3, 6]: 100* %
16 | Cc1nn(C)c(-c2ccc(F)cc2F)c1Oc1ccc(F)cc1F [compound 13] | 100% | 0% | 0% | 0% | 66% | 0% | 72% | –
17 | Cc1nn(C)c(-c2ccc(F)cc2Br)c1C(O)c1c(F)cc(F)cc1F (stereo not drawn) [compound 82] | 99% | 100% | 92% | 99% | 27% | 100% | 100% | –
18 | Cc1nn(C)c(-c2ccc(F)cc2Br)c1C(=O)c1ccc(F)cc1Cl [compound 83] | – | – | – | – | – | – | – | Test A rating (% disease control) (Botrytis cinerea; [6]): 55* %; Test B rating (% disease control) (Alternaria solani; [6]): 0* %; Test C rating (% disease control) (Septoria nodorum; [6]): 0* %; Test D rating (% disease control) (Septoria tritici; [6]): 25* %; Test E1 rating (% disease control) [1, 6]: 0* %; Test E2 rating (% disease control) [2, 6]: 74* %; Test F rating (% disease control) [3, 6]: 99* %
19 | Cc1nn(C)c(-c2ccc(F)cc2Cl)c1Nc1ccc(Cl)cc1Cl [compound 44] | – | – | – | – | – | – | – | Test A rating (% disease control) (Botrytis cinerea; [6]): 99* %; Test B rating (% disease control) (Alternaria solani; [6]): 0* %; Test C rating (% disease control) (Septoria nodorum; [6]): 0* %; Test D rating (% disease control) (Septoria tritici; [6]): 99* %; Test E1 rating (% disease control) [1, 6]: 0* %; Test E2 rating (% disease control) [2, 6]: 99* %; Test F rating (% disease control) [3, 6]: 100* %
20 | COc1ccc(-c2c(Oc3ccc(F)cc3Cl)c(C)nn2C)c(Cl)c1 [compound 31] | 100% | 0% | 0% | 100% | 0% | 92% | 96% | –
